From patent US10568950B1, “Peptides, combination of peptides and scaffolds for use in immunotherapeutic treatment of various cancers” (Immatics Biotechnologies GmbH, priority 2015, dated 2020)

Key:
HLA-A*24 = assay: MHC binding assay: UV-ligand exchange, beta2m ELISA (peptide exchange yield); parameters: species or system human; conditions: binding to HLA-A*24, β2m ELISA
[1] = tested on: CD8+ T cells of healthy HLA-A*24+ donors; assay: In vitro immunogenicity: priming of CD8+ T cells with aAPCs loaded with HLA-A*24/peptide complexes and anti-CD28, multimer staining; assay type: cell-based, human; conditions: in vitro immunogenicity, HLA-A*24 peptides of Table 12B
Procedure: CD8+ T cells were primed using artificial APCs coated with anti-CD28 mAb and HLA-A*24 in complex with SEQ ID NO: 99 peptide (FIG. 5A, left panel), SEQ ID NO: 119 peptide (FIG. 5B, left panel), SEQ ID NO: 142 peptide (FIG. 5C, left panel) and SEQ ID NO: 174 peptide (FIG. 5D, left panel), respectively. After three cycles of stimulation, the detection of peptide-reactive cells was performed by 2D multimer staining with A*24/SEQ ID NO: 99 (A), A*24/SEQ ID NO: 119 (B), A*24/SEQ ID NO: 142 (C) or A*24/SEQ ID NO: 174 (D). Right panels (FIGS. 5A, 5B, 5C and 5D) show control staining of cells stimulated with irrelevant A*24/peptide complexes. Viable singlet cells were gated for CD8+ lymphocytes. Boolean gates helped excluding false-positive events detected with multimers specific for different peptides. Frequencies of specific multimer+ cells among CD8+ lymphocytes are indicated.
In order to obtain information regarding the immunogenicity of the TUMAPs of the present invention, the inventors performed investigations using an in vitro T-cell priming assay based on repeated stimulations of CD8+ T cells with artificial antigen presenting cells (aAPCs) loaded with peptide/MHC complexes and anti-CD28 antibody.
PBMCs and isolated CD8+ lymphocytes were incubated in T-cell medium (TCM) until use consisting of RPMI-Glutamax (Invitrogen, Karlsruhe, Germany) supplemented with 10% heat inactivated human AB serum (PAN-Biotech, Aidenbach, Germany), 100 U/ml Penicillin/100 μg/ml Streptomycin (Cambrex, Cologne, Germany), 1 mM sodium pyruvate (CC Pro, Oberdorla, Germany), 20 μg/ml Gentamycin (Cambrex). 2.5 ng/ml IL-7 (PromoCell, Heidelberg, Germany) and 10 U/ml IL-2 (Novartis Pharma, Nurnberg, Germany) were also added to the TCM at this step.
Generation of pMHC/anti-CD28 coated beads, T-cell stimulations and readout was performed in a highly defined in vitro system using four different pMHC molecules per stimulation condition and 8 different pMHC molecules per readout condition.
The purified co-stimulatory mouse IgG2a anti human CD28 Ab 9.3 (Jung et al., 1987) was chemically biotinylated using Sulfo-N-hydroxysuccinimidobiotin as recommended by the manufacturer (Perbio, Bonn, Germany). Beads used were 5.6 μm diameter streptavidin coated polystyrene particles (Bangs Laboratories, Illinois, USA).
800.000 beads/200 μl were coated in 96-well plates in the presence of 4×12.5 ng different biotin-pMHC, washed and 600 ng biotin anti-CD28 were added subsequently in a volume of 200 μl. Stimulations were initiated in 96-well plates by co-incubating […] CD8+ T cells with 2×10^5 washed coated beads in 200 μl TCM supplemented with 5 ng/ml IL-12 (PromoCell) for 3 days at 37° C. Half of the medium was then exchanged by fresh TCM supplemented with 80 U/ml IL-2 and incubating was continued for 4 days at 37° C. This stimulation cycle was performed for a total of three times. For the pMHC multimer readout using 8 different pMHC molecules per condition, a two-dimensional combinatorial coding approach was used as previously described (Andersen et al., 2012) with minor modifications encompassing coupling to 5 different fluorochromes. Finally, multimeric analyses were performed by staining the cells with Live/dead near IR dye (Invitrogen, Karlsruhe, Germany), CD8-FITC antibody clone SKI (BD, Heidelberg, Germany) and fluorescent pMHC multimers. For analysis, a BD LSRII SORP cytometer equipped with appropriate lasers and filters was used. Peptide specific cells were calculated as percentage of total CD8+ cells. Evaluation of multimeric analysis was done using the FlowJo software (Tree Star, Oreg., USA). In vitro priming of specific multimer+ CD8+ lymphocytes was detected by comparing to negative control stimulations.

| Substance | Peptide exchange (MHC class I binding score, peptide exchange yield) (HLA-A*24) | Wells positive [%] [1] |
| --- | --- | --- |
| 120 (GYIEHFSLW; listed as Homo sapiens) [compound 120] | ++++ (>= 75% = ++++) | ++ (20%-49% = ++) |
| 132 (RYPALFPVL; listed as Homo sapiens) [compound 132] | ++++ (>= 75% = ++++) | + (<20% = +) |
| 137 (EYLHNCSYF; listed as Homo sapiens) [compound 137] | ++++ (>= 75% = ++++) | + (<20% = +) |
| 140 (RYLINSYDF; listed as Homo sapiens) [compound 140] | ++++ (>= 75% = ++++) | +++ (50%-69% = +++) |
| 144 (VFASLPGFLF; listed as Homo sapiens) [compound 144] | ++++ (>= 75% = ++++) | ++ (20%-49% = ++) |
| 155 (IYKWITDNF; listed as Homo sapiens) [compound 155] | ++++ (>= 75% = ++++) | ++ (20%-49% = ++) |
| 156 (YYMELTKLLL; listed as Homo sapiens) [compound 156] | ++++ (>= 75% = ++++) | + (<20% = +) |
| 163 (RYLTISNLQF; listed as Homo sapiens) [compound 163] | ++++ (>= 75% = ++++) | + (<20% = +) |
| 166 (FYTLPFHLI; listed as Homo sapiens) [compound 166] | ++++ (>= 75% = ++++) | ++++ (>= 70 % = ++++) |
| 170 (QYPFHVPLL; listed as Homo sapiens) [compound 170] | ++++ (>= 75% = ++++) | +++ (50%-69% = +++) |
| 172 (VFIFKGNEF; listed as Homo sapiens) [compound 172] | ++++ (>= 75% = ++++) | + (<20% = +) |
| 182 (AYAQLGYLLF; listed as Homo sapiens) [compound 182] | ++++ (>= 75% = ++++) | +++ (50%-69% = +++) |
| 186 (VFTTSSNIF; listed as Homo sapiens) [compound 186] | ++++ (>= 75% = ++++) | + (<20% = +) |
| 356 (NYMPGQLTI; listed as Homo sapiens) [compound 356] | ++++ (>= 75% = ++++) | + (<20% = +) |
| 359 (NYGVLHVTF; listed as Homo sapiens) [compound 359] | ++++ (>= 75% = ++++) | + (<20% = +) |
| 365 (VFIDHPVHL; listed as Homo sapiens) [compound 365] | ++++ (>= 75% = ++++) | + (<20% = +) |
| 380 (VYTGIDHHW; listed as Homo sapiens) [compound 380] | ++++ (>= 75% = ++++) | + (<20% = +) |
